Measured values from US5260479A, “Inhibitors of farnesyl protein transferase” (Merck & Co., Inc., priority 1991, dated 1993).
pIC50: −log10 of the molar value.

Molecular target: T1, Farnesyl-protein transferase (FTase) (Bos taurus, UniProt P29702+P49355)
T1 construct: Farnesyl-protein transferase (FTase) from bovine brain was chromatographed; from tissue; host or cells: bovine brain
Test: In Vitro Inhibition of Ras Farnesyl Transferase (inhibition of Ras-CVLS farnesylation)
Assay type: biochemical
Conditions: partially purified bovine brain FTase; Ras-CVLS 3.5 μM, 0.25 μM [3H]FPP
Experimental: Farnesyl-protein transferase (FTase) from bovine brain was chromatographed on DEAE-Sephacel (Pharmacia, 0-0.8M NaCl gradient elution), N-octyl agarose (Sigma, 0-0.6M NaCl gradient elution), and a mono Q HPLC column (Pharmacia, 0-0.3M NaCl gradient). Ras-CVLS at 3.5 μM, 0.25 μM [^3 H]FPP, and the indicated compounds were incubated with this partially purified enzyme preparation. The FTase inhibitory data presented below is a measurement of the ability of the test compound to inhibit Ras farnesylation in vitro.

pIC50	Compound
5.11	CCCCCCCCCCCCCC/C(C(=O)O)=C(/C)C(=O)O [A]
5.77	C=C(C(=O)O)C(CCCCCCCCCCCCCC)C(=O)O (centres unmarked) [B]
